What was measured:
[1] = Stability of crystal form to light, heat and humidity; format: physicochemical; settings: solid crystal form
[2] = test system: HFD+CCl4-induced NASH mouse model; assay: In vivo pharmacodynamic study in HFD+CCl4-induced NASH mouse model; settings: HFD+CCl4 mice; 0.5, 1, 3 mg/kg by gavage QD day 0 to day 27; reference I-181 3 mg/kg
Text: To study the effect of a compound on improving NASH and liver fibrosis in an HFD+CCl4 mouse model, with I-181 as a reference compound.
I-181 is an acetyl-CoA carboxylase inhibitor and is currently undergoing a phase II clinical study on non-alcoholic fatty liver disease (NAFLD). The HFD+CCl4 mouse model used in this study is an animal model that simulates human non-alcoholic fatty liver disease evolving into NASH. High-fat diet leads to fat accumulation and steatosis in liver cells; CCl4 (intraperitoneal injection, twice a week) simulates the “second hit” of liver injury.
The modeling for this experiment included two steps: high-fat diet feeding and CCl4 induction. Firstly, the mice were fed with high-fat diet to induce non-alcoholic fatty liver, and the mice weighing more than (>) 38 g were selected and continuously fed with high-fat diet, accompanied by the intraperitoneal injection of 25% CCl4 ([…], twice a week, for a total of four weeks). The day of starting CCl4 administration was set as day 0, and the time of starting CCl4 administration was set as hour 0. On the day of starting CCl4 administration, the administration by gavage was started, and the administration volume of each group was 5 mL/kg, once a day for 4 weeks (28 days). The injection time of CCl4 should be more than 4 hours apart from the first administration time point of the day. […]

| SMILES | Stability (light, heat and humidity) [1] | Efficacy in NAS [2] | Efficacy in fibrosis [2] |
| --- | --- | --- | --- |
| COc1ccccc1[C@H](Cn1nc(C(C)(C)C(=O)O)c(=O)c2c(C)c(-c3ncco3)sc21)OC1CCOCC1 | stable, and less affected by light, heat and humidity | – | – |
| COc1ccccc1[C@H](Cn1nc(C(C)(C)C(=O)O)c(=O)c2c(C)c(-c3ncco3)sc21)OC1CCOCC1 [Compound of formula (I)] | – | the same efficacy as the reference compound at a higher dose | the same efficacy as the reference compound at a higher dose |
